Measurements reported in the supplement of paper PMC4862054.

How the values were obtained:
Conditions in all cases: incubation time: 72 h
[1] = system: BT-474; assay: normalised viability (% of control), CellTiter-Blue; higher = more viable cells (about 100 = DMSO control)
How it was run: (§1)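 Each entry is normalised viability at a single listed concentration within a series. It comes from breast cancer cell lines incubated 72 h with compound in 384-well plates, then measured with CellTiter-Blue fluorescence at 560/590 nm. Every plate was normalised between vehicle (100) and a positive kill control (0).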

[2] = system: BT-549; assay: as above
How it was run: as §1

[3] = system: CAL-120; assay: as above
How it was run: as §1

[4] = system: CAL-148; assay: as above
How it was run: as §1

[5] = system: CAL-51; assay: as above
How it was run: as §1

[6] = system: CAL-85-1; assay: as above
How it was run: as §1

[7] = system: DU-4475; assay: as above
How it was run: as §1

[8] = system: HCC1143; assay: as above
How it was run: as §1

[9] = system: HCC1599; assay: as above
How it was run: as §1

[10] = system: HCC1937; assay: as above
How it was run: as §1

[11] = system: HDQ-P1; assay: as above
How it was run: as §1

[12] = system: Hs578T; assay: as above
How it was run: as §1

[13] = system: MDA-MB-231; assay: as above
How it was run: as §1

[14] = system: MDA-MB-436; assay: as above
How it was run: as §1

[15] = system: MDA-MB-453; assay: as above
How it was run: as §1

[16] = system: MDA-MB-468; assay: as above
How it was run: as §1

[17] = system: MFM-223; assay: as above
How it was run: as §1

[18] = system: SK-BR-3; assay: as above
How it was run: as §1

[19] = system: CAL-148; assay: normalised viability (% of control), CellTiter-Blue; higher = more viable cells (about 100 = DMSO control); remark: listed apart in the source
Description: (§2)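 DSRT, CellTiter-Blue viability, 72 h incubation. Signal is normalised to DMSO and benzethonium chloride controls. Value is the normalised response at dose 9.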

[20] = system: CAL-51; assay: as above; remark: listed apart in the source
Description: as §2

[21] = system: CAL-85-1; assay: as above; remark: listed apart in the source
Description: as §2

[22] = system: DU-4475; assay: as above; remark: listed apart in the source
Description: as §2

[23] = system: HDQ-P1; assay: as above; remark: listed apart in the source
Description: as §2

[24] = system: MDA-MB-453; assay: as above; remark: listed apart in the source
Description: as §2

[25] = system: BT-474; assay: normalised viability (% of control), CellTiter-Blue; higher = more viable cells (100 = DMSO, 0 = benzethonium chloride kill control)
How it was run: as §1

[26] = system: CAL-148; assay: as above
How it was run: as §1

[27] = system: CAL-85-1; assay: as above
How it was run: as §1

[28] = system: HCC1143; assay: as above
How it was run: as §1

[29] = system: MDA-MB-231; assay: as above
How it was run: as §1

[30] = system: MDA-MB-436; assay: as above
How it was run: as §1

[31] = system: MDA-MB-453; assay: as above
How it was run: as §1

Q: What does the source list for O=C1NC(=O)[C@@H](c2cn3c4c(cccc24)CCC3)[C@@H]1c1c[nH]c2ccccc12 [Tivantinib]?
A: normalised viability ([1]; 1000 nM): 45.4%; normalised viability ([2]; 1000 nM): 26.8%; normalised viability ([3]; 1000 nM): 29.7%; normalised viability ([4]; 10 nM): 97.9%; normalised viability ([5]; 10 nM): 108%; normalised viability ([6]; 10 nM): 104%; normalised viability ([7]; 10 nM): 82.9%; normalised viability ([8]; 1000 nM): 55.2%; normalised viability ([9]; 1000 nM): 79%; normalised viability ([10]; 1000 nM): 30.4%; normalised viability ([11]; 10 nM): 100%; normalised viability ([12]; 1000 nM): 19.9%; normalised viability ([13]; 1000 nM): 29.8%; normalised viability ([14]; 1000 nM): 52.3%; normalised viability ([15]; 10 nM): 107%; normalised viability ([16]; 1000 nM): 42.4%; normalised viability ([17]; 1000 nM): 57.8%; normalised viability ([18]; 1000 nM): 21.5%; normalised viability ([19]; 1000 nM): 30.5%; normalised viability ([20]; 1000 nM): 21.1%; normalised viability ([21]; 1000 nM): 33.9%; normalised viability ([22]; 1000 nM): 36.9%; normalised viability ([23]; 1000 nM): 53%; normalised viability ([24]; 1000 nM): 31%; normalised viability ([25]; 0.1 nM): 128%; normalised viability ([26]; 0.1 nM): 110%; normalised viability ([27]; 0.1 nM): 101%; normalised viability ([28]; 0.1 nM): 108%; normalised viability ([29]; 0.1 nM): 111%; normalised viability ([30]; 0.1 nM): 127%; normalised viability ([31]; 0.1 nM): 101%

Q: Which normalised viability ([1]; 1000 nM) does the source give for CC[C@]1(O)C[C@H]2CN(CCc3c([nH]c4ccccc34)[C@@](C(=O)OC)(c3cc4c(cc3OC)N(C=O)[C@H]3[C@@](O)(C(=O)OC)[C@H](OC(C)=O)[C@]5(CC)C=CCN6CC[C@]43[C@@H]65)C2)C1 [Vincristine] here?
A: 55.9%

Q: What about the normalised viability ([1]; 10000 nM) of the same compound?
A: 47.9%

Q: What about the normalised viability ([2]; 1000 nM) of the same compound?
A: 14.6%

Q: What about the normalised viability ([2]; 10000 nM) of the same compound?
A: 20.2%

Q: What about the normalised viability ([3]; 1000 nM) of the same compound?
A: 19.9%

Q: What about the normalised viability ([3]; 10000 nM) of the same compound?
A: 20.6%

Q: What about the normalised viability ([4]; 10 nM) of the same compound?
A: 21.4%

Q: And the normalised viability ([4]; 100 nM)?
A: 20.6%

Q: What about the normalised viability ([5]; 10 nM) of the same compound?
A: 70.6%

Q: And the normalised viability ([5]; 100 nM)?
A: 18%

Q: And the normalised viability ([6]; 10 nM)?
A: 33.4%

Q: And the normalised viability ([6]; 100 nM)?
A: 39.2%

Q: And the normalised viability ([7]; 10 nM)?
A: 56%

Q: And the normalised viability ([7]; 100 nM)?
A: 19.5%

Q: And the normalised viability ([8]; 1000 nM)?
A: 32.1%

Q: And the normalised viability ([8]; 10000 nM)?
A: 33.6%

Q: What about the normalised viability ([9]; 1000 nM) of the same compound?
A: 73.7%

Q: And the normalised viability ([9]; 10000 nM)?
A: 45.7%

Q: And the normalised viability ([10]; 1000 nM)?
A: 13.2%

Q: What about the normalised viability ([10]; 10000 nM) of the same compound?
A: 16.1%

Q: And the normalised viability ([11]; 10 nM)?
A: 46.4%

Q: What about the normalised viability ([11]; 100 nM) of the same compound?
A: 43.8%

Q: And the normalised viability ([12]; 1000 nM)?
A: 12.7%

Q: What about the normalised viability ([12]; 10000 nM) of the same compound?
A: 15.9%

Q: What about the normalised viability ([13]; 1000 nM) of the same compound?
A: 14.4%

Q: And the normalised viability ([13]; 10000 nM)?
A: 14.5%

Q: What about the normalised viability ([14]; 1000 nM) of the same compound?
A: 30.2%

Q: And the normalised viability ([14]; 10000 nM)?
A: 50.3%

Q: And the normalised viability ([15]; 10 nM)?
A: 26.9%

Q: And the normalised viability ([15]; 100 nM)?
A: 30.8%

Q: And the normalised viability ([16]; 1000 nM)?
A: 41.1%

Q: What about the normalised viability ([16]; 10000 nM) of the same compound?
A: 38.4%

Q: And the normalised viability ([17]; 1000 nM)?
A: 27.9%

Q: And the normalised viability ([17]; 10000 nM)?
A: 20.5%

Q: What about the normalised viability ([18]; 1000 nM) of the same compound?
A: 16.6%

Q: What about the normalised viability ([18]; 10000 nM) of the same compound?
A: 16.8%

Q: What about the normalised viability ([19]; 1000 nM) of the same compound?
A: 21.8%

Q: And the normalised viability ([19]; 10000 nM)?
A: 28.5%

Q: And the normalised viability ([20]; 1000 nM)?
A: 11.7%

Q: And the normalised viability ([20]; 10000 nM)?
A: 10.7%

Q: What about the normalised viability ([21]; 1000 nM) of the same compound?
A: 47.4%

Q: What about the normalised viability ([21]; 10000 nM) of the same compound?
A: 39.8%

Q: And the normalised viability ([22]; 1000 nM)?
A: 7.67%

Q: What about the normalised viability ([22]; 10000 nM) of the same compound?
A: 8.66%

Q: And the normalised viability ([23]; 1000 nM)?
A: 41.5%

Q: What about the normalised viability ([23]; 10000 nM) of the same compound?
A: 37.9%

Q: What about the normalised viability ([24]; 1000 nM) of the same compound?
A: 38.5%

Q: And the normalised viability ([24]; 10000 nM)?
A: 41.6%

Q: What about the normalised viability ([25]; 0.1 nM) of the same compound?
A: 97.2%

Q: What about the normalised viability ([25]; 1 nM) of the same compound?
A: 41.5%

Q: What about the normalised viability ([26]; 0.1 nM) of the same compound?
A: 87.6%

Q: And the normalised viability ([26]; 1 nM)?
A: 108%

Q: What about the normalised viability ([27]; 0.1 nM) of the same compound?
A: 86.5%

Q: And the normalised viability ([27]; 1 nM)?
A: 91.8%

Q: What about the normalised viability ([28]; 0.1 nM) of the same compound?
A: 80%

Q: What about the normalised viability ([28]; 1 nM) of the same compound?
A: 89.6%

Q: What about the normalised viability ([29]; 0.1 nM) of the same compound?
A: 95.8%

Q: What about the normalised viability ([29]; 1 nM) of the same compound?
A: 82.5%

Q: And the normalised viability ([30]; 0.1 nM)?
A: 89.4%

Q: What about the normalised viability ([30]; 1 nM) of the same compound?
A: 109%

Q: And the normalised viability ([31]; 0.1 nM)?
A: 107%

Q: And the normalised viability ([31]; 1 nM)?
A: 88.5%
